The record followed here is patent US20070004791A1, “3,6-disubstituted azabicyclo {3.1.0} hexane derivatives useful as muscarnic receptor antagonists” (priority 2002, published 2007).

For assay [1], the target named is T1, M3 muscarinic receptor (Rattus norvegicus, UniProt P08483).
The target in assay [2] is T1, M3 muscarinic receptor. Briefly: biochemical. Particulars: Receptor Binding Assay M3 pKi.
The target of a further assay is T2, M2 muscarinic receptor (Rattus norvegicus, UniProt P10980).
T2 construct: Submandibular glands and heart were isolated and placed in ice cold homogenising buffer; from tissue; host or cells: rat heart membrane homogenate
T2 sequence (P10980 1-466): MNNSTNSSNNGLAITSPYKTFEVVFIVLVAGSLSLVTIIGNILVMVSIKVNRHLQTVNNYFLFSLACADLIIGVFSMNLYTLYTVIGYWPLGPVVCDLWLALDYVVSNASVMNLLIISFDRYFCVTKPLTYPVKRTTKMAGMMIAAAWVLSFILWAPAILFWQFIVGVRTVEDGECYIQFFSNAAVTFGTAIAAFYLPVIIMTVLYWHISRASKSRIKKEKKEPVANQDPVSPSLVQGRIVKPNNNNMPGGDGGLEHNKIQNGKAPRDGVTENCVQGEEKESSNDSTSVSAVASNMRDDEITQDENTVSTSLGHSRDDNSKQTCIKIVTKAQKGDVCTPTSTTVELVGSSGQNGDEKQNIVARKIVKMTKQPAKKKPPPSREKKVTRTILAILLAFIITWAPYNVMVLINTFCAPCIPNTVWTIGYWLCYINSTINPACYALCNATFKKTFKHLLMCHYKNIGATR
Briefly: biochemical. In kind it is binding. Particulars: for Ki: Receptor Binding Assay M2 pKi.

Structures can show the parent of a compound that is named as a salt.

T1 sequence (P08483 whole entry): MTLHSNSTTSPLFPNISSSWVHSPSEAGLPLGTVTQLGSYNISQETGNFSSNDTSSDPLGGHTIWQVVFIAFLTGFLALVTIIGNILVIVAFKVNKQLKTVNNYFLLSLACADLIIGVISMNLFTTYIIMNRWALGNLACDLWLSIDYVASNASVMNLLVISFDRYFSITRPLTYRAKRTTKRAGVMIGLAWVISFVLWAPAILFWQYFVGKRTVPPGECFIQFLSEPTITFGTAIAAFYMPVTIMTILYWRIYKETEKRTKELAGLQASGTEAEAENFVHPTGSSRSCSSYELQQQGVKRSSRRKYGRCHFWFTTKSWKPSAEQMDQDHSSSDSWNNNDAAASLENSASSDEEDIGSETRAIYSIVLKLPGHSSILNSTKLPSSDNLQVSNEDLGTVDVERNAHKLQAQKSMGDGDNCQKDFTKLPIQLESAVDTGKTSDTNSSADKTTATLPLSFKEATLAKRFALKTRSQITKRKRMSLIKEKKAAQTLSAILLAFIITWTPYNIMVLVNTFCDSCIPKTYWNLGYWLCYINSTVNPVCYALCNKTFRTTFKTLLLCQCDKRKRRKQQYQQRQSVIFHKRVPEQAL

The Ki is a dissociation constant, usually derived from enzyme kinetics or from competition with a known ligand. For `O=C(NC[C@@H]1[C@H]2CN(Cc3ccccc3)C[C@@H]12)[C@](O)(c1ccccc1)C1CCCC1` [Compound No. 29, (2R)-(+)-(1α,5α,6α)-N-[3-benzyl-3-azabicyclo[3.1.0]hexyl-6-(aminomethyl)-yl]-2-hydroxy-2-cyclopentyl-2-phenyl acetamide], the “Receptor Binding Assay Selectivity M2/M3” value at M3 muscarinic receptor [1] turned out to be 11.2. Also, the Ki was 1.1 nM at M3 muscarinic receptor [2] and 12.3 nM on M2 muscarinic receptor.

Take `O=C(NC[C@@H]1[C@H]2CN(Cc3ccncc3)C[C@@H]12)C(O)(c1ccccc1)C1CCCC1` (stereo partly drawn) [Compound No. 48, (1α,5α,6α)-N-[3-(4-pyridylmethyl)-3-azabicyclo[3.1.0]hexyl-6-(aminomethyl)-yl]-2-hydroxy-2-cyclopentyl-2-phenylacetamide]: the values for the inhibition constant (Ki) at M3 muscarinic receptor [2] and at M2 muscarinic receptor were 72.4 nM and more than 1000 nM, respectively.

As to `O=C(NC[C@@H]1[C@H]2CN(Cc3ccccc3)C[C@@H]12)[C@@](O)(c1ccccc1)C1CCCC1` [Compound No. 32, (2S)-(−)(1α,5α,6α)-N-[3-benzyl-3-azabicyclo[3.1.0]hexyl-6-(aminomethyl)-yl]-2-hydroxy-2-cyclopentyl-2-phenyl acetamide], the “Receptor Binding Assay Selectivity M2/M3” value at M3 muscarinic receptor [1] was determined as 28. Moreover, the values for the inhibition constant (Ki) at M3 muscarinic receptor [2] and at M2 muscarinic receptor were 22.4 nM and 631 nM, respectively.

`O=C(NC[C@@H]1[C@H]2CN(Cc3ccccc3)C[C@@H]12)C(O)(c1ccccc1)C1CCC1` (stereo partly drawn) [Compound No. 37, (1α,5α,6α)-N-[3-benzyl-3-azabicyclo[3.1.0]hexyl-6-(aminomethyl)-yl]-2hydroxy-2-cyclobutyl-2-phenylacetamide]: the “Receptor Binding Assay Selectivity M2/M3” value on M3 muscarinic receptor [1] worked out at 8. Further, the figures for the Ki on M3 muscarinic receptor [2] and on M2 muscarinic receptor were 5.89 nM and 57.5 nM, respectively.

Consider `CC(c1ccccc1)N1CC2C(CNC(=O)C(O)(c3ccccc3)C3CCCCC3)C2C1` (stereo not drawn) [Compound No. 21, (1α,5α,6α)-N-[3-(1-phenylethyl)-3-azabicyclo[3.1.0]hexyl-6-(aminomethyl)-yl]-2-hydroxy-2-cyclohexyl-2-phenyl acetamide], for which, on M3 muscarinic receptor [1], the “Receptor Binding Assay Selectivity M2/M3” value amounted to 17. Further, the inhibition constant Ki on M3 muscarinic receptor [2] is 15.1 nM; at M2 muscarinic receptor, 257 nM.

Consider `CC(C)=CCCN1C[C@@H]2[C@@H](CNC(=O)C(O)(c3ccccc3)C3CCCCC3)[C@@H]2C1` (stereo partly drawn) [Compound No. 15, (1α,5α,6α)-N-[3-(4-methyl-3-pentenyl)-3-azabicyclo[3.1.0]hexyl-6-(aminomethyl)-yl]-2-hydroxy-2-cyclohexyl-2-phenyl acetamide], for which the “Receptor Binding Assay Selectivity M2/M3” value at M3 muscarinic receptor [1] is reported as 19. Besides, the inhibition constant Ki on M3 muscarinic receptor [2] is 13.5 nM; at M2 muscarinic receptor, 257 nM.

As to `O=C(NC[C@@H]1[C@H]2CN(Cc3cccnc3)C[C@@H]12)C(O)(c1ccccc1)c1ccccc1` [Compound No. 49, (1α,5α,6α)-N-[3-(3-pyridylmethyl)-3-azabicyclo[3.1.0]hexyl-6-(aminomethyl)-yl]-2-hydroxy-2,2-diphenylacetamide], the inhibition constant (Ki) on M3 muscarinic receptor [2] was 69.2 nM; on M2 muscarinic receptor it was more than 1000 nM.

Consider `O=C(NCC1C2CN(Cc3ccccc3)CC12)C(O)(c1ccccc1)C1CCCCC1` (stereo not drawn) [Compound No. 2, (1α,5α,6α)-N-[3-benzyl-3-azabicyclo[3.1.0]hexyl-6-(aminomethyl)-yl]-2-hydroxy-2-cyclohexyl-2-phenyl acetamide], for which the “Receptor Binding Assay Selectivity M2/M3” value at M3 muscarinic receptor [1] stood at 25. Further, the Ki at M3 muscarinic receptor [2] was 5.62 nM; on M2 muscarinic receptor it was 141 nM.

Regarding `CC(C)=CCN1C[C@@H]2[C@@H](CNC(=O)C(O)(c3ccccc3)C3CCCCC3)[C@@H]2C1` (stereo partly drawn) [Compound No. 39, (1α,5α,6α)-N-[3-(3-methyl-2-butenyl)-3-azabicyclo[3.1.0]hexyl-6-(aminomethyl)yl]-2-hydroxy-2-cyclohexyl-2-phenylacetamide], at M3 muscarinic receptor [1], the “Receptor Binding Assay Selectivity M2/M3” value came to 3.7. Moreover, the Ki at M3 muscarinic receptor [2] is 4.37 nM; on M2 muscarinic receptor, 16.2 nM.

As for `O=C(NC[C@@H]1[C@H]2CN(CCc3ccc4c(c3)CCO4)C[C@@H]12)C(O)(c1ccccc1)C1CCCCC1` (stereo partly drawn) [Compound No. 9, (1α,5α,6α)-N-[3-(2-(2,3-dihydrobenzofuran-5-yl)ethyl)-3-azabicyclo[3.1.0]hexyl-6-(aminomethyl)-yl]-2-hydroxy-2-cyclohexyl-2-phenyl acetamide], at M3 muscarinic receptor [1], the “Receptor Binding Assay Selectivity M2/M3” value is 6.6. The figures for the Ki on M3 muscarinic receptor [2] and on M2 muscarinic receptor were 38.9 nM and 257 nM, respectively.

In the case of `CC(NC(=O)C(O)(c1ccccc1)C1CCCCC1)[C@H]1[C@@H]2CN(Cc3ccccc3)C[C@@H]21` (stereo partly drawn) [Compound No. 24, (1α,5α,6α)-N-[3-benzyl-3-azabicyclo[3.1.0]hexyl-6-(1-aminoethyl)-yl]-2-hydroxy-2-cyclohexyl-2-phenyl acetamide], the “Receptor Binding Assay Selectivity M2/M3” value at M3 muscarinic receptor [1] was 8.9. Further, the figures for the Ki at M3 muscarinic receptor [2] and on M2 muscarinic receptor were 30.9 nM and 275 nM, respectively.

Consider `CC(NC(=O)C(O)(c1ccccc1)c1ccccc1)[C@H]1[C@@H]2CN(Cc3ccccc3)C[C@@H]21` (stereo partly drawn) [Compound No. 23, (1α,5α,6α)-N-[3-benzyl-3-azabicyclo[3.1.0]hexyl-6-(1-aminoethyl)-yl]-2-hydroxy-2,2-diphenyl acetamide], for which, on M3 muscarinic receptor [1], the “Receptor Binding Assay Selectivity M2/M3” value is on record as 3.7. Further, the inhibition constant (Ki) at M3 muscarinic receptor [2] was 158 nM; at M2 muscarinic receptor, 589 nM.

As for `O=C(NCC1C2CN(CCc3ccc4c(c3)CCO4)CC12)C(O)(c1ccccc1)C1CCCC1` (stereo not drawn) [Compound No. 10, (1α,5α,6α)-N-[3-(2-(2,3-dihydrobenzofuran-5-yl)ethyl)-3-azabicyclo[3.1.0]hexyl-6-(aminomethyl)-yl]-2-hydroxy-2-cyclopentyl-2-phenyl acetamide], the “Receptor Binding Assay Selectivity M2/M3” value at M3 muscarinic receptor [1] is reported as 10.47. Further, the Ki was 32.4 nM on M3 muscarinic receptor [2] and 339 nM on M2 muscarinic receptor.

Take `O=C(NCC1C2CN(Cc3ccccc3)CC12)C(O)(c1ccccc1)C1CCCC1` [Compound No. 34, (1α,5α,6α)-N-[3-benzyl-3-azabicyclo[3.1.0]hexyl-6-(aminomethyl)-yl]-2-hydroxy-2-cyclopentyl-2-phenyl acetamide L-(+)-tartrate salt]: at M3 muscarinic receptor [1], the “Receptor Binding Assay Selectivity M2/M3” value is given as 8. Moreover, the Ki was 5.89 nM on M3 muscarinic receptor [2] and 60.3 nM on M2 muscarinic receptor.

Consider `O=C(NCC1C2CN(Cc3ccncc3)CC12)C(O)(c1ccccc1)C1CCCCC1` (stereo not drawn) [Compound No. 46, (1α,5α,6α)-N-[3-(4pyridylmethyl)-3-azabicyclo[3.1.0]hexyl-6-(aminomethyl)-yl]-2-hydroxy-2-cyclohexyl-2-phenylacetamide], for which the Ki at M3 muscarinic receptor [2] was 67.6 nM; at M2 muscarinic receptor, more than 1000 nM.

Regarding `O=C(NCC1C2CN(Cc3ccccc3)CC12)C(O)(c1ccccc1)C1CCCC1` (stereo not drawn) [Compound No. 61, (1α,5α,6α)-N-[3-benzyl-3-azabicyclo[3.1.0]-hexyl-6-(aminomethyl)-yl]-2-hydroxy-2-cyclopentyl-2-phenyl acetamide. L(−) malic acid salt], the Ki is 5.13 nM at M3 muscarinic receptor [2] and 43.7 nM at M2 muscarinic receptor.

Regarding `O=C(NC[C@@H]1[C@H]2CN(Cc3cccnc3)C[C@@H]12)C(O)(c1ccccc1)C1CCCCC1` (stereo partly drawn) [Compound No. 45, (1α,5α,6α)-N-[3-(3-pyridylmethyl)-3-azabicyclo[3.1.0]hexyl-6-(aminomethyl)-yl]-2-hydroxy-2-cyclohexyl-2-phenyl acetamide], the Ki was 234 nM on M3 muscarinic receptor [2] and more than 1000 nM at M2 muscarinic receptor.

In the case of “(1α,5α,6α)-N-[3-(2-(3,4-methylenedioxyphenyl)ethyl)-3-azabicyclo[3.1.0]hexyl-6-(aminomethyl)-yl]-2-hydroxy-2-cyclopentyl-2-phenyl acetamide [Compound No. 13]”, on M3 muscarinic receptor [1], the “Receptor Binding Assay M3 pKi” value was 7.28 and the “Receptor Binding Assay Selectivity M2/M3” value turned out to be 6.3. For the same molecule, the “Receptor Binding Assay M2 pKi” value at M2 muscarinic receptor is given as 6.48.

Turning to `O=C(NC[C@@H]1[C@H]2CN(Cc3ccccc3)C[C@@H]12)C(O)(c1ccccc1)C1CCCC1` (stereo partly drawn) [Compound No. 62, (1α,5α,6α)-N-[3-benzyl-3-azabicyclo[3.1.0]-hexyl-6-(aminomethyl)-yl]-2-hydroxy-2-cyclopentyl-2-phenyl acetamide. Maleate salt], the figures for the Ki on M3 muscarinic receptor [2] and on M2 muscarinic receptor were 6.76 nM and 52.5 nM, respectively.

Take “(1α,5α,6α)-N-[3-(2-pyridylmethyl)-3-azabicyclo[3.1.0]hexyl-6-(aminomethyl)-yl]-2-hydroxy-2-cyclopentyl-2-phenylacetamide [Compound No. 47]”: on M3 muscarinic receptor [1], the “Receptor Binding Assay M3 pKi” value is reported as 7.42. Besides, the “Receptor Binding Assay M2 pKi” value on M2 muscarinic receptor amounted to 6.15.

Turning to `O=C(NCC1C2CN(Cc3ccccc3)CC12)C(O)(c1ccccc1)C1CCCC1` (stereo not drawn) [Compound No. 60, (1α,5α,6α)-N-[3-benzyl-3-azabicyclo[3.1.0]-hexyl-6-(aminomethyl)-yl]-2-hydroxy-2-cyclopentyl-2-phenyl acetamide hydrochloride salt], the Ki was 5.25 nM on M3 muscarinic receptor [2] and 49 nM on M2 muscarinic receptor.

Turning to `O=C(NC[C@@H]1[C@H]2CN(Cc3ccncc3)C[C@@H]12)C(O)(c1ccccc1)c1ccccc1` [Compound No. 50, (1α,5α,6α)-N-[3-(4-pyridylmethyl)-3-azabicyclo[3.1.0]hexyl-6-(aminomethyl)-yl]-2-hydroxy-2,2-diphenyl acetamide], the inhibition constant Ki at M3 muscarinic receptor [2] was 115 nM; at M2 muscarinic receptor, more than 1000 nM.

On to “(1α,5α,6α)-N-[3-(2-(3,4-methylenedioxyphenyl)ethyl)-3-azabicyclo[3.1.0]hexyl-6-(aminomethyl)-yl]-2-hydroxy-2-cyclohexyl-2-phenyl acetamide [Compound No. 14]”, for which, on M3 muscarinic receptor [1], the “Receptor Binding Assay M3 pKi” value stood at 6.72 and the “Receptor Binding Assay Selectivity M2/M3” value is recorded as 10.5. In addition, the “Receptor Binding Assay M2 pKi” value at M2 muscarinic receptor is reported as 5.7.
